From ChEMBL document CHEMBL1135235, “Structure-activity relationships of oxime neurokinin antagonists: oxime modifications” (Bioorg Med Chem Lett, 2002)

Columns and labels:
[1] = Area under curve was determined at a dose 30 mpk administered orally.; type: ADME, organism-based; conditions: rat, in vivo, po, 30 mg/kg
[2] = biological target: T1, Substance-K receptor (Cavia porcellus) (UniProt Q64077); assay: Inhibitory activity against Tachykinin receptor 2 evaluated as beta-ala-NKA (410) induced bronchospasm inhibition after a oral dose of 10 mpk in guinea pig; type: functional
T1 sequence (whole entry): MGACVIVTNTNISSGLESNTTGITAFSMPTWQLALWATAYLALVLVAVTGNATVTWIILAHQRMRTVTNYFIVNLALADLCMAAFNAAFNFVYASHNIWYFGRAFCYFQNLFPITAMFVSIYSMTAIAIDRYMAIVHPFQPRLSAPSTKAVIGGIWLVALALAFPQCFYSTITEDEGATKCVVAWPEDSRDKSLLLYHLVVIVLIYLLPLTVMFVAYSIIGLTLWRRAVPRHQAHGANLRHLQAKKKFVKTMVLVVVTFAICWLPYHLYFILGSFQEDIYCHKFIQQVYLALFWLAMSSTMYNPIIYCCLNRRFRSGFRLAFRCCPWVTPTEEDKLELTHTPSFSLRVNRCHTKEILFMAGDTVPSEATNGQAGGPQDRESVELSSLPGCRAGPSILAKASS

Substance-K receptor = biological target: T2, Substance-K receptor (Homo sapiens, UniProt P21452); assay: Binding affinity against recombinant human tachykinin receptor 2 in CHO cells using [3H]NKA as a radioligand; type: cell-based
T2 sequence (P21452 whole entry): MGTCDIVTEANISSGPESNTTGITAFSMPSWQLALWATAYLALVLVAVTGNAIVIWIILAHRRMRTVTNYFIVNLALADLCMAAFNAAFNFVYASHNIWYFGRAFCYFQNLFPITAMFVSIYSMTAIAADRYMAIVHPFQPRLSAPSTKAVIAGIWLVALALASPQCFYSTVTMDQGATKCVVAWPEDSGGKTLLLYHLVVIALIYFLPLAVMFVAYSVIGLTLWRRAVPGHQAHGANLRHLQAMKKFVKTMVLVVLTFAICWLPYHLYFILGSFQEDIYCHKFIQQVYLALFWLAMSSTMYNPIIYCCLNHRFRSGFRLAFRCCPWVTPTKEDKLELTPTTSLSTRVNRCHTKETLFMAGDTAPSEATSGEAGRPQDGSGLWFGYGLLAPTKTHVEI

Substance-P receptor = Substance-P receptor (Homo sapiens, UniProt P25103); assay: Binding affinity against recombinant human tachykinin receptor 1 in CHO cells using [3H]-Sar SP as a radioligand; type: cell-based
Chain of Substance-P receptor (P25103 whole entry): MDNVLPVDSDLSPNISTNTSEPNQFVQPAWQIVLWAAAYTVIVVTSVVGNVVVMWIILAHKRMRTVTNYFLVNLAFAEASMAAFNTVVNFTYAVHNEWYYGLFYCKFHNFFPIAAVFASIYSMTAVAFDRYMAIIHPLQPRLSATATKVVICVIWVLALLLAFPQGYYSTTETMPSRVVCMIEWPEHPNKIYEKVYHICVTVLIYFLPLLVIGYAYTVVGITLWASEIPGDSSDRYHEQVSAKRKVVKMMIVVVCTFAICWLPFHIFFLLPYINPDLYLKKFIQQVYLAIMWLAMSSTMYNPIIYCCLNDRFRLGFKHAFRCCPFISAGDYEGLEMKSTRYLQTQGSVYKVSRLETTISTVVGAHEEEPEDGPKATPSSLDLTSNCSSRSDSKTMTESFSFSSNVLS

AUC [1]: 3 µM·h | inhibition [2]: 94% | Ki (Substance-K receptor): 700 pM | Ki (Substance-P receptor): 700 pM
Structure (SMILES): CN(C/C(=N\OCC(=N)NO)C(CCN1CCC(N2CCCCC2=O)CC1)c1ccc(Cl)c(Cl)c1)C(=O)c1cc(Cl)cc(Cl)c1 (centres undefined)
